Data taken from ChEMBL document CHEMBL5233269, “Anticancer potential of spirocompounds in medicinal chemistry: A pentennial expedition” (Eur J Med Chem, 2021).
pEC50, pIC50: −log10 of the molar value. Values belong to the molecule of their own block, whether it stands above or below them.

How the values were obtained:
[1] = tested on: HCT-116; assay: Anticancer activity against human HCT-116 cells assessed as inhibition of cell growth; type: functional, cell-based
[2] = tested on: PC-3; assay: Anticancer activity against human PC-3 cells assessed as inhibition of cell growth; type: functional, cell-based
[3] = tested on: HepG2; assay: Anticancer activity against human HepG2 cells assessed as inhibition of cell viability; type: functional, cell-based
[4] = tested on: B16-F10; assay: Anticancer activity against mouse B16-F10 cells incubated for 48 hrs by MTT assay; type: functional, cell-based; conditions: B16-F10, 48 h
[5] = tested on: A549; assay: Anticancer activity against human A549 cells assessed as reduction in cell viability incubated for 48 hrs by MTT assay; type: functional, cell-based; conditions: A549, 48 h
[6] = tested on: MCF7; assay: Anticancer activity against human MCF7 cells assessed as reduction in cell viability incubated for 48 hrs by MTT assay; type: functional, cell-based; conditions: MCF7, 48 h
[7] = tested on: HepG2; assay: Anticancer activity against human HepG2 cells; type: functional, cell-based
[8] = tested on: MCF7; assay: Anticancer activity against human MCF7 cells assessed as inhibition of cell viability; type: functional, cell-based
[9] = tested on: A549; assay: Anticancer activity against human A549 cells assessed as inhibition of cell growth by MTT assay; type: functional, cell-based
[10] = tested on: MCF7; assay: Anticancer activity against human MCF7 cells assessed as inhibition of cell growth by MTT assay; type: functional, cell-based
[11] = tested on: HeLa; assay: Anticancer activity against human HeLa cells assessed as inhibition of cell growth by MTT assay; type: functional, cell-based
[12] = tested on: HeLa; assay: Anticancer activity against human HeLa cells; type: functional, cell-based
[13] = tested on: A549; assay: Anticancer activity against human A549 cells assessed as inhibition of cell proliferation; type: functional, cell-based
[14] = tested on: MCF7; assay: Anticancer activity against human MCF7 cells; type: functional, cell-based
[15] = tested on: DU-145; assay: Anticancer activity against human DU-145 cells; type: functional, cell-based
[16] = Antiproliferative activity against human […] cells measured after 48 hrs by MTT assay; type: functional, cell-based
[17] = tested on: MCF7; assay: Antiproliferative activity against human MCF7 cells measured after 48 hrs by MTT assay; type: functional, cell-based; conditions: MCF7, 48 h
[18] = tested on: HeLa; assay: Antiproliferative activity against human HeLa cells measured after 48 hrs by MTT assay; type: functional, cell-based
[19] = tested on: HL-60; assay: Antiproliferative activity against human HL-60 cells measured after 48 hrs by MTT assay; type: functional, cell-based; conditions: HL-60, 48 h
[20] = tested on: SW480; assay: Antiproliferative activity against human SW480 cells measured after 48 hrs by MTT assay; type: functional, cell-based; conditions: SW480, 48 h
[21] = tested on: HepG2; assay: Antiproliferative activity against human HepG2 cells measured after 48 hrs by MTT assay; type: functional, cell-based; conditions: HepG2, 48 h
[22] = tested on: HT-29; assay: Antiproliferative activity against human HT-29 cells measured after 48 hrs by MTT assay; type: functional, cell-based; conditions: HT-29, 48 h
[23] = tested on: A549; assay: Antiproliferative activity against human A549 cells measured after 48 hrs by MTT assay; type: functional, cell-based; conditions: A549, 48 h
[24] = tested on: MCF7; assay: Inhibition of cell proliferation in human MCF7 cells; type: functional, cell-based
[25] = Inhibition of cell proliferation in human MCF-10A cells at 50 uM by MTT colorimetric cell viability assay relative to control; type: toxicity, cell-based
[26] = tested on: A549; assay: Cytotoxicity against human A549 cells assessed as inhibition of tumor cell proliferation incubated for 72 hrs by MTT assay; type: functional, cell-based; conditions: A549, 72 h
[27] = biological target: T1, Amine oxidase [flavin-containing] A (Rattus norvegicus, UniProt P21396); assay: Inhibition of rat brain MAO-A relative to control; type: tissue-based
T1 sequence (P21396 whole entry): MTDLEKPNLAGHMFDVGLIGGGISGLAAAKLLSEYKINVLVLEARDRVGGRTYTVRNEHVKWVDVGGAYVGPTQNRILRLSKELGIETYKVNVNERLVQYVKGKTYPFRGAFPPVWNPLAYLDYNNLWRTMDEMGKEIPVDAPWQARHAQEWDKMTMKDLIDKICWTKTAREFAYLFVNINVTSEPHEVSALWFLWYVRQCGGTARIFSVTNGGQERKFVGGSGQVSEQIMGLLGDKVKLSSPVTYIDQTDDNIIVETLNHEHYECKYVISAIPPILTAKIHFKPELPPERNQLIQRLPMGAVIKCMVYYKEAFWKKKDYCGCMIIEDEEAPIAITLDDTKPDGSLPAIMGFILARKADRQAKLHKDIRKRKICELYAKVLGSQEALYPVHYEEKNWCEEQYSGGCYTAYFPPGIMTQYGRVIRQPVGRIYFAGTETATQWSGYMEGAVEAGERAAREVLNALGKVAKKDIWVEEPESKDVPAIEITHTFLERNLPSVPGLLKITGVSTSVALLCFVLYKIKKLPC

[28] = tested on: Ehrlich; assay: Antitumor activity against mouse Ehrlich ascites carcinoma xenografted in mouse model assessed tumor growth inhibition relative to control; type: functional; parameters: scale not given: the % may be the effect or the level left
[29] = tested on: Sarcoma-180; assay: Antitumor activity against mouse Sarcoma-180 xenografted in mouse model assessed tumor growth inhibition relative to control; type: functional; parameters: scale not given: the % may be the effect or the level left
[30] = tested on: SMMC-7721; assay: Cytotoxicity against human SMMC-7721 cells assessed as inhibition of tumor cell proliferation incubated for 72 hrs by MTT assay; type: functional, cell-based; conditions: SMMC-7721, 72 h
[31] = tested on: MGC-803; assay: Cytotoxicity against human MGC-803 cells assessed as inhibition of tumor cell proliferation incubated for 72 hrs by MTT assay; type: functional, cell-based; conditions: MGC-803, 72 h
[32] = tested on: MCF7; assay: Anticancer activity against human MCF7 cells at 10 uM by MTT assay relative to control; type: functional
[33] = tested on: A549; assay: Cytotoxicity against human A549 cells; type: functional, cell-based
[34] = tested on: HCT-116; assay: Cytotoxicity against human HCT-116 cells; type: functional, cell-based
[35] = tested on: SW-620; assay: Cytotoxicity against human SW620 cells; type: functional, cell-based
[36] = tested on: PC-3; assay: Cytotoxicity against human PC-3 cells; type: functional, cell-based

Compound: COC1=CC2(C=C(C(=O)NNc3ccc(F)c(F)c3)c3cc(OC)cc(OC)c32)C(OC)=CC1=O (stereo not given)
pIC50 [4]: 4.68
pIC50 [5]: 4.69
pIC50 [6]: 4.81

Compound: N#CC1=C(N)NC2=C(CCCCC2)C12C(=O)Nc1ccccc12 (stereo not given)
pIC50 [7]: 4.70
pIC50 [8]: 4.74

Compound: O=C1Nc2ccc(Br)cc2C12c1c([nH]c(=O)[nH]c1=O)N(c1ccc(N3CCOCC3)c(F)c1)c1[nH]c(=O)[nH]c(=O)c12
pIC50 [9]: 4.59
pIC50 [10]: 4.64
pIC50 [11]: 5.17

Compound: O=C1OCC2Nc3ccccc3NC3(C(=O)N(Cc4ccccc4)c4ccccc43)C12 (stereo not given)
pIC50 [12]: 5.64
pIC50 [13]: 5.87
pIC50 [14]: 5.65
pIC50 [15]: 5.94

Compound: O=C1Nc2ccc(Br)cc2C12c1c(c3ccccc3oc1=O)N(c1ccc(N3CCOCC3)c(F)c1)c1c2c(=O)oc2ccccc12
pIC50 [9]: 4.65
pIC50 [10]: 5.02
pIC50 [11]: 4.74

Compound: C[C@]12CC[C@H](O)CC1=CCC1C2CC[C@@]2(C)C1CC[C@@H]2C1=CC2(C(=O)Nc3ccc(Cl)cc32)C(C#N)=C(N)N1 (stereo not given in full)
pIC50 [26]: 4.94

Compound: COC1=CC2(C=C(C(=O)NNc3ccc(OC(F)(F)F)cc3)c3cc(OC)cc(OC)c32)C(OC)=CC1=O (stereo not given)
pIC50 [4]: 4.71
pIC50 [5]: 4.75
pIC50 [6]: 4.82

Compound: O=C1OCC2Nc3ccccc3NC3(C(=O)N(Cc4ccccc4)c4ccc(Br)cc43)C12 (stereo not given)
pIC50 [12]: 4.92
pIC50 [13]: 5.42
pIC50 [14]: 5.63
pIC50 [15]: 5.50

Compound: O=C1C2=C(c3ccccc31)N(c1ccc(N3CCOCC3)c(F)c1)C1=C(C(=O)c3ccccc31)C21C(=O)Nc2ccccc21
pIC50 [9]: 4.75
pIC50 [10]: 5.19
pIC50 [11]: 5.04

Compound: C[C@]12CC[C@H](O)CC1=CCC1C2CC[C@@]2(C)C1CC[C@@H]2C1=CC2(C(=O)N(Cc3ccc(Cl)c(Cl)c3)c3ccccc32)C(C#N)=C(N)N1 (stereo not given in full)
pIC50 [30]: < 3.89
pIC50 [26]: < 3.89
pIC50 [31]: < 3.89

Compound: CCOC(=O)c1[nH]nc2c1C1(C(=O)N(C(C)=O)c3ccccc31)C(C#N)=C(N)O2 (stereo not given)
inhibition at 10 µM [32]: 15.7%

Compound: O=C1OCC2Nc3ccc(Cl)cc3NC3(C(=O)Nc4ccccc43)C12 (stereo not given)
pIC50 [12]: 5.27
pIC50 [13]: 5.53
pIC50 [14]: 5.02
pIC50 [15]: 5.77

Compound: O=C1Oc2cc(Cl)ccc2C2C1CN(C(=O)N1CCCCC1)C21C(=O)Nc2ccccc21 (stereo not given)
pIC50 [33]: 5.15
pIC50 [34]: 4.80
pIC50 [35]: 6.31
pIC50 [36]: < 4.30

More lines, main results first:

pIC50 [1]: 7.02
pIC50 [2]: 6.55
pIC50 [3]: 6.55
Compound: Cc1ccc(-c2nc(SC3O[C@H](CO)[C@@H](O)[C@H](O)[C@H]3O)nc3c2SC2(CCCCC2)N3c2ccc(F)cc2)o1 (stereo not given in full)

pIC50 [17]: 5.37
pIC50 [18]: 5.45
pIC50 [19]: 5.35
pIC50 [20]: 5.30
pIC50 [21]: 5.61
pIC50 [22]: 5.30
pIC50 [23]: 5.27
Compound: CC(=O)O[C@H]1CC[C@]2(C)C3CC[C@@]4(C)C(CC[C@H]4[C@H](C)CCCC(C)C)C3C[C@@]3(N=C4C=CC=CN4/C3=N\c3ccccc3)C2C1 (stereo not given in full)
pIC50 [16]: 5.27

pEC50 [24]: 5.40
Compound: COc1cc(OC)c(C2NCCC23C(=O)Nc2ccccc23)cc1OC (stereo not given)
inhibition at 50 µM [25]: 0.8%

pIC50 [1]: 7.04
pIC50 [2]: 6.92
pIC50 [3]: 6.75
Compound: CC(=O)OC[C@H]1OC(Sc2nnc(/N=C3\CSC4(CCCCC4)N3c3ccc(F)cc3)s2)[C@H](OC(C)=O)[C@@H](OC(C)=O)[C@@H]1OC(C)=O (stereo not given in full)

pEC50 [24]: 5.45
Compound: O=C1Nc2ccccc2C12CCNC2c1ccccc1 (stereo not given)
inhibition at 50 µM [25]: 0.08%

pIC50 [1]: 6.92
pIC50 [2]: 6.65
pIC50 [3]: 6.87
Compound: CC(=O)OC[C@H]1OC(Sc2nc(-c3ccc(C)o3)c3c(n2)N(c2ccc(F)cc2)C2(CCCCC2)S3)[C@H](OC(C)=O)[C@@H](OC(C)=O)[C@@H]1OC(C)=O (stereo not given in full)

inhibition (INH) [27]: 15%
Compound: CCn1c(SCC(=O)Nc2cccc(C(F)(F)F)c2)nc2c(c1=O)C1(CCCCC1)Cc1ccccc1-2
Activity [28]: 70%
Activity [29]: 42%

pIC50 [1]: 6.97
pIC50 [2]: 6.95
pIC50 [3]: 6.48
Compound: CC1CCC2(CC1)SC/C(=N\c1nnc(SC3O[C@H](CO)[C@@H](O)[C@H](O)[C@H]3O)s1)N2c1ccc(F)cc1 (stereo not given in full)
